Measurements taken from article PMC9140012, “Epigenetic-Like Stimulation of Receptor Expression in SSTR2 Transfected HEK293 Cells as a New Therapeutic Strategy” (Cancers, 2022).
Values joined by “and” are separate entries in the source; they are usually repeats but may differ in a detail not shown here. Equal entries are not always repeated.

Columns and labels:
[1] = test system: HEKsst2 cells; experiment: Radiotoxicity of Lu-177-DOTATATE on unstimulated and stimulated HEKsst2 (CFA); assay type: cell-based; details: for Survival Fraction: 24 h
Experimental: (§1) The stimulation process followed the protocol described above.
(§2) To determine the radiosensitivity and radiotoxicity, the clonogene cell survival was analyzed. Colony formation assays were performed as described earlier. The following steps have been done for each of the treatment procedures. Briefly, after detaching the treated cells, an aliquot of the cell suspension per dose point was distributed in T25 culture flasks for the colony formation test and is placed in an incubator for 7 (HEKsst2) or 10 days (PC3). To stop colony formation, the cells were fixed with ethanol 80% (v/v) followed by staining with crystal violet solution. The colony counting was carried out under a microscope (25× magnification). Colonies of more than 50 cells were scored as survivors. The plating efficiency (PE) and the survival rate (survival fraction SF) were calculated for irradiated and unirradiated cells based on the number of seeded cells.

[2] = test system: SSTR2 in HEKsst2 cells; experiment: Intracellular Lu-177-DOTATATE uptake, HEKsst2; assay type: cell-based, murine; details: for Lu-177-DOTATATE uptake (intracellular activity, % of total activity normalized to 2.0 × 10^5 cells): 37 °C; for Lu-177-DOTATATE uptake (intracellular activity, % of total activity normalized to 2.0 × 10^5 cells) / increase of Lu-177-DOTATATE uptake by a factor: 50 kBq; for increase of Lu-177-DOTATATE uptake by a factor: stimulated (5.0 µM 5-aza-dC, 1.85 mM VPA) vs unstimulated
Experimental: (§3) HEK293 cells were obtained from the German Resource Center for Biological Material (DSMZ, Braunschweig, Germany) and grown in Dulbecco’s modified Eagle´s medium supplemented with 10% fetal calf serum (FCS) in a humidified atmosphere containing 5% CO2. Cells were transfected with plasmid, encoding murine HA-tagged SSTR2 receptors using lipofectamine according to the manufacturing instructions (Thermofisher, Darmstadt, Germany). Stable transfectants were selected in the presence of 500 µg/mL G-418 and characterized using radioligand binding assays, Western blot analyses, surface ELISA assays and immunocytochemistry as described previously. Non-transfected HEK293 cells were maintained under equal conditions as HEKsst2 except for the addition of G-418. In the following, HEK293 cells and SSTR2 transfected HEK293 cells are termed as HEK and HEKsst2, respectively. The human prostate carcinoma cell line PC3 (ATCC®, Manassas, VA, USA) was cultured in a RPMI medium with 10% (v/v) FCS and 1% (v/v) non-essential amino acids (NEA). […] The culture medium of each cell line was renewed every 2–3 days. Via a PCR test, each cell line is proven to be free of mycoplasmas.
After incubation times, the supernatant of the well was removed and the cells were washed twice with PBS (phosphate buffered saline) at 4 °C. Supernatant and washed solution make up the non-bound fraction of the radioligand. The cell layers were lysed with 1 mL 0.1 M NaOH for 10 min at 37 °C. These fractions correspond to the intracellular fraction of radioligand. The activity of all fractions was measured using a Gamma-Counter (Cobra II, Autogamma, Packard®, Canberra Company, Ruesselsheim, Germany). The intracellular activity was expressed as a percentage of the total activity normalized to the cell count of 2.0 × 10^5.
To examine the statistical significance, an unpaired student’s t-test was used. A difference between two independent samples is significant if the probability of error p ≤ 0.05. For the statistical evaluation, MS Office Excel was used.

[3] = test system: cell lines HEKsst2 and PC3; experiment: A80/A60 of Lu-177-DOTATATE by colony formation assay, HEKsst2 and PC3; assay type: cell-based; details: 24 h incubation, value used for both HEKsst2 and PC3
Experimental: (§4) To show the dose-response relationship, the unstimulated HEKsst2 and PC3 cells were irradiated with absorbed doses of 0.1–7.5 Gy in an X-ray tube.
as §1, §2

[4] = test system: PC3 cells; experiment: Intracellular Lu-177-DOTATATE uptake, PC3; assay type: cell-based, human; details: 50 kBq
Experimental: HEK293 cells were obtained from the German Resource Center for Biological Material (DSMZ, Braunschweig, Germany) and grown in Dulbecco’s modified Eagle´s medium supplemented with 10% fetal calf serum (FCS) in a humidified atmosphere containing 5% CO2. Cells were transfected with plasmid, encoding murine HA-tagged SSTR2 receptors using lipofectamine according to the manufacturing instructions (Thermofisher, Darmstadt, Germany). Stable transfectants were selected in the presence of 500 µg/mL G-418 and characterized using radioligand binding assays, Western blot analyses, surface ELISA assays and immunocytochemistry as described previously. Non-transfected HEK293 cells were maintained under equal conditions as HEKsst2 except for the addition of G-418. In the following, HEK293 cells and SSTR2 transfected HEK293 cells are termed as HEK and HEKsst2, respectively. […]
After incubation times, the supernatant of the well was removed and the cells were washed twice with PBS (phosphate buffered saline) at 4 °C. […] The activity of all fractions was measured using a Gamma-Counter (Cobra II, Autogamma, Packard®, Canberra Company, Ruesselsheim, Germany). The intracellular activity was expressed as a percentage of the total activity normalized to the cell count of 2.0 × 10^5. […]

[5] = test system: PC3 cells; experiment: Radiotoxicity of Lu-177-DOTATATE on unstimulated and stimulated PC3 (CFA); assay type: cell-based, human; details: for cell survival of stimulated vs unstimulated PC3: 5-aza-dC and VPA
Experimental: as §1, §2

[6] = test system: HEKsst2 cells; experiment: Radiotoxic dose-response of Lu-177-DOTATATE (CFA), unstimulated HEKsst2; assay type: cell-based
Experimental: as §4, §2

[7] = test system: PC3 cells; experiment: Radiotoxic dose-response of Lu-177-DOTATATE (CFA), unstimulated PC3; assay type: cell-based, human; details: up to 0.5 MBq/mL, 24 h, compared with HEKsst2
Experimental: as §4, §2

[8] = test system: SSTR2 in HEKsst2 cells; experiment: Saturation binding of Lu-177-DOTATATE, HEKsst2; set-up: species or system murine; details: for Kd: excess DOTATATE for non-specific binding; for number of binding sites per cell: from Bmax
Experimental: as §3
Excess DOTATATE (3.5 × 10^−3–7.03 nmol) was used to block receptors and determine the non-specific binding. The uptake data (triplicates per each condition) were fitted to a one-site binding model in GraphPad Prism 9.0 to determine the number of binding sites (Bmax) and the dissociation constant (Kd).
To determine the Bmax values and the Kd, the GraphPad Prism 9.0 software was used. Confidence Intervals (CI) express a 95% likelihood of the nonlinear fit.

[9] = test system: Forskolin-stimulated cAMP production; set-up: method as in PMID 29599907; details: BON-1 and QGP-1 stimulated with 5-aza-dC and VPA; cited from earlier work

With “(DOTA)-[Tyr3, Thr8]-octreotide [Lu-177-DOTATATE, SSTR2-targeted radioligand, Lu-177 labelled (DOTA)-[Tyr3, Thr8]-octreotide]” the Survival Fraction ([1]; 57.5 kBq/mL Lu-177-DOTATATE, non-stimulated) was 0.54, the Survival Fraction ([1]; 57.5 kBq/mL Lu-177-DOTATATE, stimulated with 5-aza-dC 0.25 µM and VPA 0.6 mM, normalized to SF = 1, p = 0.1424 vs unstimulated) was 0.27 and the “factor of increase of radiotoxic effects, stimulated vs unstimulated” value ([1]; 57.5 kBq/mL, 5-aza-dC 0.25 µM and VPA 0.6 mM) was 2. The Survival Fraction ([1]; 136 kBq/mL Lu-177-DOTATATE, stimulated with 5-aza-dC 0.46 µM and VPA 1.0 mM, normalized to SF = 1, p = 0.0029 vs unstimulated) was 0.09 and 0.1, the Survival Fraction ([1]; 136 kBq/mL Lu-177-DOTATATE, unstimulated) was 0.42 and the “factor of lower survival, stimulated vs unstimulated (radiotoxic effect increase)” value ([1]; 136 kBq/mL, 5-aza-dC 0.46 µM and VPA 1.0 mM) was 4. For the same substance, the “Lu-177-DOTATATE uptake (intracellular activity, % of total activity normalized to 2.0 × 10^5 cells)” value ([2]; 1 h, cells stimulated 5 days with 5.0 µM 5-aza-dC and 1.85 mM VPA, p = 0.0142 vs unstimulated, gamma counter) was 50.2%, the “Lu-177-DOTATATE uptake (intracellular activity, % of total activity normalized to 2.0 × 10^5 cells)” value ([2]; 1 h, unstimulated cells) was 1.8% and the “increase in Lu-177-DOTATATE uptake vs unstimulated” value (“increase in Lu-177-DOTATATE uptake” below) ([2]; 1 h, 0.1 µM 5-aza-dC (and 1.85 mM VPA), p = 0.060) was “also shows stimulatory effects, no significant difference was found”. The “increase in Lu-177-DOTATATE uptake” value ([2]; 1 h, 5.0 µM 5-aza-dC and 1.85 mM VPA, p < 0.05) was 2800%, the “Lu-177-DOTATATE uptake (intracellular activity, % of total activity normalized to 2.0 × 10^5 cells)” value ([2]; 24 h, cells stimulated with 5.0 µM 5-aza-dC and 1.85 mM VPA, p = 0.0090 vs unstimulated) was 36.2% and the “Lu-177-DOTATATE uptake (intracellular activity, % of total activity normalized to 2.0 × 10^5 cells)” value ([2]; 24 h, unstimulated cells) was 5.6%. For the same substance, the “increase in Lu-177-DOTATATE uptake” value ([2]; 24 h, 3.9 µM 5-aza-dC and 1.85 mM VPA, p < 0.05) was “≈ 640%”, the “increase in Lu-177-DOTATATE uptake” value ([2]; 24 h, 5.0 µM 5-aza-dC and 1.85 mM VPA, p < 0.05) was “≈ 640%” and the “increase of Lu-177-DOTATATE uptake by a factor” value ([2]; 1 h, p = 0.0142) was 28. The “increase of Lu-177-DOTATATE uptake by a factor” value ([2]; 24 h, p = 0.0090) was 6.5, the A60 ([3]; activity equivalent to X-ray D60 (1.2 Gy)) was 136 kBq/mL and the A80 ([3]; activity equivalent to X-ray D80 (0.6 Gy)) was 57.5 kBq/mL. The “Lu-177-DOTATATE uptake values compared to unstimulated cells” value ([4]; stimulated PC3, 1 h, p = 0.4935) was “marginal increase”, the “Lu-177-DOTATATE uptake values compared to unstimulated cells” value ([4]; stimulated PC3, 24 h, p = 0.3694) was “marginal increase” and the “cell survival of stimulated vs unstimulated PC3” value ([5]; 57.5 kBq/mL Lu-177-DOTATATE, not statistically significant, p = 0.5482) was “higher SF fractions”. The “cell survival of stimulated vs unstimulated PC3” value ([5]; 136 kBq/mL Lu-177-DOTATATE, p = 0.5078) was “only a slight, statistically insignificant difference”, the “radiotoxic effects when stimulated with 5-aza-dC and VPA” value ([5]; PC3, Lu-177-DOTATATE 57.5 and 136 kBq/mL) was “no increase regarding the radiotoxic effects” and the “radioactivity concentration at which all SST2 receptors are engaged (assumed)” value ([6]; HEKsst2, equal to approximately 0.34 ng/500,000 cells) was 0.5 MBq/mL. For the same substance, the “decrease of SF values with Lu-177-DOTATATE concentration” value ([6]; unstimulated HEKsst2, 0.05-5 MBq/mL, 24 h) was “strong dose-dependent decrease of the SF values until the receptors seemed to be saturated”, the “decrease of the survival with Lu-177-DOTATATE concentration” value [7] was “much less pronounced” and the Bmax ([8]; HEKsst2 stimulated with 5-aza-dC and VPA, 1 h, 37 °C, one-site model, specific binding, 95% CI = 1.08 × 10^−9 to 1.62 × 10^−9 nmol) was 1.32e-09 nmol. For the same substance, the Kd ([8]; HEKsst2 stimulated with 5-aza-dC and VPA, 1 h, 37 °C, one-site model) was 4.88 nM, the “number of binding sites per cell” value ([8]; HEKsst2 stimulated with 5-aza-dC and VPA) was 7.95 × 10^5 and the maximum total binding ([8]; almost reached at 0.5 MBq/mL Lu-177-DOTATATE, HEKsst2) was 17 kBq/500,000 cells. For the same substance, the Bmax ([8]; as restated in the discussion (Figure 3), unstimulated HEKsst2) was 4.4 × 10^−10 nmol/cell, the “Bmax as bound activity” value ([8]; corresponds to Bmax = 4.4 × 10^−10 nmol/cell) was 15.5 kBq/500,000 cells and the Bmax ([8]; unstimulated HEKsst2, 1 h, 37 °C, one-site model, specific binding, 95% CI = 4.15 × 10^−10 to 4.58 × 10^−10 nmol) was 4.36e-10 nmol. For the same substance, the Kd ([8]; unstimulated HEKsst2, 1 h, 37 °C, one-site model) was 2.1 nM, the “number of binding sites per cell” value ([8]; unstimulated HEKsst2) was 2.63 × 10^5 and the “number of binding sites per cell, unstimulated compared to stimulated” value ([8]; unstimulated vs stimulated HEKsst2) was “three-fold lower”.

In the case of octreotide, the “inhibition of the Forskolin-stimulated cAMP production” value [9] is given as “inhibition of the Forskolin-stimulated cAMP production”.
